Measurements as given in publication PMC7773887 (Computational and Structural Biotechnology Journal, 2020).

Legend:
AmpC BER = AmpC BER (Escherichia coli, UniProt A7TUE6); assay: nitrocefin hydrolysis steady-state kinetics, Lineweaver-Burk; format: biochemical
CMY-10 = CMY-10 (Klebsiella aerogenes, UniProt Q99QC1); assay: nitrocefin hydrolysis assay at […] inhibitor; format: biochemical; conditions: read-out: % inhibition at 200 μM
CMY-10, sequence (Q99QC1 24-382): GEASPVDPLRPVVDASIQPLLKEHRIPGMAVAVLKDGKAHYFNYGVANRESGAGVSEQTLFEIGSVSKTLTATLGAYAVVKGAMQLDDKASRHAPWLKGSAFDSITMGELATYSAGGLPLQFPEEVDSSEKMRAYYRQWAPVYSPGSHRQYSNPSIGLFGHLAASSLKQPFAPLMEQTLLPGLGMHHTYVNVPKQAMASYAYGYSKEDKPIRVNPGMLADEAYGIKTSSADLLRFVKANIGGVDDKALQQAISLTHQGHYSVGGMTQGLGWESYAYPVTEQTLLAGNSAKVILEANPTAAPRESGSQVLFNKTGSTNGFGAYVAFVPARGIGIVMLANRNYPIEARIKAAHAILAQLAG

AmpC BER, sequence (A7TUE6 20-379): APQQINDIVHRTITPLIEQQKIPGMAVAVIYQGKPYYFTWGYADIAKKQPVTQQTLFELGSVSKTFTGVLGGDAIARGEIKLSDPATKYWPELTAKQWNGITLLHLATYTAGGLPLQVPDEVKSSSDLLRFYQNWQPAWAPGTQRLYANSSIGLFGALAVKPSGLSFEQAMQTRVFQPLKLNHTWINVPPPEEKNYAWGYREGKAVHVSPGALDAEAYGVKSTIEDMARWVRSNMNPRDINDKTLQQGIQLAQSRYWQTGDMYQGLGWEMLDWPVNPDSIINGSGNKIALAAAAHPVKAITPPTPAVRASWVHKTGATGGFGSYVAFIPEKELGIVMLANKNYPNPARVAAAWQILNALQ

C=C1CCC[C@@H]2[C@@](C)(CCC(CCCc3ccoc3)COS(=O)(=O)O)[C@H](C)CC[C@]12C (some centres unmarked) [Hali 5, halisulfate 5]
Ki (AmpC BER): 5.87 µM
inhibition at 200 µM (CMY-10): ~90%
